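Cells were grown in 96-well plates and exposed to each compound for 48 hours at five concentrations; endpoints were interpolated linearly between bracketing concentrations, or set to the highest concentration if not reached. GI50 marks 50% less growth. TGI is the concentration that stops growth completely.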
Assays:
Experiment in all cases: growth of human tumour cells (NCI), 48 h
A549 NSCLC = test system: A549 NSCLC
ACHN renal = test system: ACHN renal
K-562 leukemia = test system: K-562 leukemia
KM12 colon = test system: KM12 colon
LOX IMVI melanoma = test system: LOX IMVI melanoma
MOLT-4 leukemia = test system: MOLT-4 leukemia
HCC-2998 colon = test system: HCC-2998 colon
HT29 colon = test system: HT29 colon
MALME-3M melanoma = test system: MALME-3M melanoma
MCF7 breast = test system: MCF7 breast

| Structure (SMILES) | TGI (A549 NSCLC) [µM] | TGI (ACHN renal) [µM] | TGI (K-562 leukemia) [µM] | TGI (KM12 colon) [µM] | TGI (LOX IMVI melanoma) [µM] | TGI (MOLT-4 leukemia) [µM] | TGI (HCC-2998 colon) [µM] | TGI (HT29 colon) [µM] | TGI (MALME-3M melanoma) [µM] | TGI (MCF7 breast) [µM] | GI50 (A549 NSCLC) [µM] | GI50 (ACHN renal) [µM] | GI50 (HCC-2998 colon) [µM] | GI50 (HT29 colon) [µM] | GI50 (K-562 leukemia) [µM] | GI50 (KM12 colon) [µM] | GI50 (LOX IMVI melanoma) [µM] | GI50 (MALME-3M melanoma) [µM] | GI50 (MCF7 breast) [µM] | GI50 (MOLT-4 leukemia) [µM] |
| --- | --- | --- | --- | --- | --- | --- | --- | --- | --- | --- | --- | --- | --- | --- | --- | --- | --- | --- | --- | --- |
| N#CCCN(CCC#N)c1ccc(/C=C(\NC(=O)c2cc([N+](=O)[O-])ccc2Cl)C(=O)Nc2ccccc2)cc1 | > 100 | > 100 | > 100 | > 100 | > 100 | > 100 | – | – | – | – | – | – | – | – | – | – | – | – | – | – |
| O=C(O)c1cc(=O)c2c(OCC(O)COc3cccc4oc(C(=O)O)cc(=O)c34)cccc2o1 | > 100 | > 100 | > 100 | > 100 | > 100 | > 100 | > 100 | > 100 | > 100 | > 100 | – | – | – | – | – | – | – | – | – | – |
| Cc1ccc([N+](=O)[O-])cc1S(=O)(=O)Nc1ccc(C2=NOC(c3cccs3)C2)cc1 (centres undefined) | 67.2 | 46.3 | 43.6 | 29.1 | 23.6 | 22.3 | 21.9 | 40.2 | > 100 | 23.4 | – | – | – | – | – | – | – | – | – | – |
| c1ccc(C(NC2=NCCO2)c2ccccc2)cc1 | > 10 | > 10 | > 10 | > 10 | > 10 | > 10 | > 10 | > 10 | > 10 | > 10 | – | – | – | – | – | – | – | – | – | – |
| CCOC(=O)C(Cc1cn(C(C)=O)c2ccccc12)P(=O)(OCC)OCC (centres undefined) | > 100 | > 100 | > 100 | – | > 100 | > 100 | > 100 | > 100 | – | – | – | – | – | – | – | – | – | – | – | – |
| C/C(=N\NC(=S)N(C)C)c1nc2ncccc2[nH]1 | > 100 | 14.7 | > 100 | – | > 100 | 9.86 | – | > 100 | 6.68 | > 100 | – | – | – | – | – | – | – | – | – | – |
| COc1cc2cc(C(=O)Nc3cc4n(n3)-c3ccccc3C4)[nH]c2c(OC)c1OC | 7.63 | 17.6 | 14.9 | 7.83 | 12.7 | 2.2 | 21 | 25.5 | 6.43 | 14.1 | – | – | – | – | – | – | – | – | – | – |
| O=C(Nc1ccc(-n2cc(-c3ccncc3)c(-c3ccc(O)c(Cl)c3)n2)cc1)Nc1ccc(Cl)c(C(F)(F)F)c1 | 17.4 | 9.42 | 49.4 | 12.8 | 18 | 16.4 | 20.1 | 25.2 | 17.1 | 13.4 | 3.6 | 2.66 | 4.65 | 10.2 | 3.89 | 3.8 | 2.14 | 3.04 | 3.06 | 3.18 |
| CCCn1cc2c(SC)nc(SC)nc2n1 | > 100 | > 100 | > 100 | > 100 | > 100 | > 100 | > 100 | > 100 | > 100 | – | – | – | – | – | – | – | – | – | – | – |
| O=c1/c(=C/c2ccc([N+](=O)[O-])o2)sc2n1[C@@H](c1ccc(Cl)cc1)C=C(c1cc(F)c(Cl)cc1Cl)N=2 | 86.9 | 32.6 | 36.9 | > 100 | 33.6 | 45.9 | – | 23.2 | 33.9 | 32.2 | – | – | – | – | – | – | – | – | – | – |
| COc1ccc(-c2cc(-c3ccc(O)cc3O)c(C#N)c(=O)[nH]2)cc1 | 62 | > 100 | 77 | > 100 | 31.6 | 55.1 | – | 34.6 | 70.4 | > 100 | – | – | – | – | – | – | – | – | – | – |
| C/C(=N\NC(=S)NCCCCNC(=S)N/N=C(\C)c1ccccn1)c1ccccc1 | > 58 | > 24 | > 100 | > 100 | 14.3 | > 30.5 | > 100 | > 100 | > 52.4 | – | – | – | – | – | – | – | – | – | – | – |
| COc1ccc(C(O)(c2ccccc2)c2nccc3ccccc23)cc1 (centres undefined) | > 100 | > 100 | > 100 | > 100 | > 100 | 11.9 | – | > 100 | 7.27 | > 100 | – | – | – | – | – | – | – | – | – | – |
| CCOC(=O)CCSc1nc2ccc(I)cc2c(=O)n1Cc1ccccc1 | > 100 | > 83 | > 100 | > 100 | > 77.3 | – | > 71.2 | > 100 | 48.4 | > 100 | – | – | – | – | – | – | – | – | – | – |
| COc1cc2c(cc1OCCCOS(C)(=O)=O)N=C[C@@H]1CCCN1C2=O | > 100 | > 100 | – | > 100 | > 100 | > 100 | > 100 | > 100 | > 100 | > 100 | – | – | – | – | – | – | – | – | – | – |
| Cn1ncc2c(Nc3cccc(Cl)c3)nc(Nc3cccc(Cl)c3)nc21 | > 53.4 | 29.2 | 19.2 | > 42.2 | > 85.7 | 47.4 | 27.6 | > 56.8 | 48 | 32.1 | – | – | – | – | – | – | – | – | – | – |
| O=C(O)CCc1nc2ccccc2[nH]1 | > 100 | > 100 | > 100 | > 100 | > 100 | > 100 | > 100 | > 100 | > 100 | > 100 | – | – | – | – | – | – | – | – | – | – |
